Assays:
[1] = tested on: MGMT positive human melanoma cells A375; experiment: Colony formation assay (cytotoxicity), A375 melanoma cells; type: cell-based; conditions: 48-hour drug incubation, colonies counted 7-10 days later, compared at similar concentrations (FIG. 2)
Method: (§1) The cytotoxicity of TMZ, POH-TMZ, and POH-TMZ-Linoleate were studied by colony formation assay of A2058 and A375 melanoma cells. A2058 and A375 cells were harvested and made single cell suspension in culture medium (DMEM with 10% FBS, 1% Penicillin/Streptomycin). 500 cells/well were seeded into 12-well plate (tissue culture treated, from Olympus Plastics) pre-warmed culture medium at 37° C. The cells were cultured overnight for attachment to the plate. Then the medium was removed and replaced with fresh medium containing varied concentrations of drugs (or no drugs as a control) for further 48-hour incubation. After 48 hours treatment, the medium was aspirated and replaced with normal culture medium. 7-10 days later, the culture medium was aspirated, and the colonies formed inside the wells were washed with cold PBS once. Then the colonies were stained with 0.1% methylene blue (in methanol) for 4-6 hours. The plates were then washed and the formed colonies counted (the colonies formed with 20 cells or more are countable).

[2] = tested on: human melanoma tumor cells, A2058; experiment: In vivo tumor growth inhibition, subcutaneous A2058 melanoma in nude mice, topical treatment, with CD31 histology
Method: Inhibition of tumor growth by POH-TMZ-linoleate was studied in nude mice. Nude mice were injected subcutaneously with 2×10^6 human melanoma tumor cells, A2058. The melanoma cells were allowed to form a palpable nodule in the mice. When the tumor size reached 1.0-1.5 cm in diameter in any dimension, a control mouse was treated topically with a vehicle (10% DMSO in 45% Glycerol+45% ethanol), and a test mouse was topically treated with TPL (50 mM TPL working solution was reconstituted in 45% Glycerol+45% Ethanol, and 100 μl (25 mg/kg) was applied topically on the skin which covers the whole tumor). The control mouse and the test mouse were both treated twice daily for 14 days.
After the 14 days of treatment the mice were sacrificed, the tumor removed, sectioned at 8 μm, fixed with acetone, and stored at −20° C. For histological analysis, the tissues were blocked with sea block and stained with the primary antibody Rat anti Mouse (1:50) overnight following which secondary biotinylated goat anti rat antibody (1:200) was added for 45 minutes, washed and avidin biotin complex, ABC elite was added for 30 minutes, washed and then stained with AEC and counter stained with hematoxylin. Such staining was used to evaluate the endothelial marker CD31 expression, which is representative of the amounts of blood vessels in the tumor. Staining images were captured at 40× under optical microscope. […] The histological analysis results were further quantified using ImageJ software by measuring the average area of staining in the tumors of the test mouse after TPL treatment and the control mouse, where the average area of staining was calculated based on the red precipitate of the stain in μm^2. From FIG. 5, it can be seen that the average area of staining is much smaller in the tumor of the test mouse than that in the control mouse.

[3] = tested on: MGMT negative human melanoma cells A2058; experiment: Colony formation assay (cytotoxicity), A2058 melanoma cells; type: cell-based; conditions: 48-hour drug incubation, colonies counted 7-10 days later, compared at similar concentrations (FIG. 1)
Method: as §1

Structure (SMILES)	colonies count (effectiveness in killing the melanoma cells) [1]	tumor angiogenesis (CD31 staining, visual inspection) versus vehicle-treated mouse ([2]; after 14 days of topical treatment, FIGS. 4D-4F vs 4A-4C)	average area of CD31 staining in the tumor versus control mouse ([2]; after 14 days of topical treatment, ImageJ quantification, FIG. 5)	vascularization of the tumor compared with the tumor before the treatment ([2]; topical 25 mg/kg twice daily for 14 days, FIG. 3B vs FIG. 3A)	appearance of the tumor surface after treatment ([2]; topical 50 mM, 100 μl (25 mg/kg) twice daily for 14 days, FIG. 3B)	colonies count (effectiveness in killing the melanoma cells) [3]
C=C(C)[C@@H]1CC=C(COC(=O)N(C(=O)CCCCCCC/C=C\C/C=C\CCCCC)C(=O)c2ncn3c(=O)n(C)nnc23)CC1 [POH-TMZ-linoleate, (3-Methyl-4-oxo-3,4-dihydro-imidazo[5,1-d][1,2,3,5]tetrazine-8-carbonyl)-octadeca-9,12-dienoyl-carbamic acid 4-isopropenyl-cyclohex-1-enylmethyl ester]	more effective in killing the melanoma cells than POH-TMZ	much lower	much smaller	reduced vascularization	developed a hard surface	more effective in killing the melanoma cells than POH-TMZ
C=C(C)[C@@H]1CC=C(COC(=O)NC(=O)c2ncn3c(=O)n(C)nnc23)CC1 [POH-TMZ, reference compound]	more effective than TMZ	–	–	–	–	more effective than TMZ
